# Measured values from paper PMC10484855, “Production, purification, and characterization of cold-active lipase from the psychrotroph Pseudomonas sp. A6” (Brazilian Journal of Microbiology, 2023).
# Test system: T1, cold-active lipase from Pseudomonas sp. A6
# T1 construct: 65 kDa by SDS-PAGE
# Test: spectrophotometric p-nitrophenol release at […] nm; Lineweaver-Burk plot
# Format: biochemical
# Conditions: 10 °C; phosphate buffer; pH of the Km assay not stated; unit printed ambiguously as 'm mol'
smiles,measurement,value
CCCCCCCCCCCC(=O)Oc1ccc([N+](=O)[O-])cc1 [p-nitrophenyl laurate],Km,6.6 * 10^−4 m mol L^−1
